Experiments:
Assay type in all cases: in vivo
[1] = test system: Veronica persica; assay: Pre-emergence herbicidal effect (greenhouse pot test); conditions: pre-emergence method, application rate of 0.32 kg and less of active substance per hectare, scored visually after about 3 weeks
Excerpt: (§1) Seeds of monocotyledonous or dicotyledonous weed plants or crop plants are placed in sandy loam in wood-fiber pots and covered with soil. The compounds according to the invention, formulated in the form of wettable powders (WP), are then applied as aqueous suspension at a water application rate of 600 I/ha (converted) with the addition of 0.2% of wetting agent to the surface of the covering soil.
(§2) After the treatment, the pots are placed in a greenhouse and kept under good growth conditions for the test plants. After about 3 weeks, the effect of the preparations is scored visually in comparison with untreated controls (herbicidal effect in percent (%): 100% activity=the plants have died, 0% activity=like control plants).

[2] = test system: Alopecurus myosuroides; assay: as above; conditions: pre-emergence method, application rate of 0.32 kg and less of active substance per hectare, scored visually after about 3 weeks
Excerpt: as §1, §2

[3] = test system: Lolium multiflorum; assay: as above; conditions: pre-emergence method, application rate of 0.32 kg and less of active substance per hectare, scored visually after about 3 weeks
Excerpt: as §1, §2

[4] = test system: Echinochloa crus galli; assay: as above; conditions: pre-emergence method, application rate of 0.32 kg and less of active substance per hectare, scored visually after about 3 weeks
Excerpt: as §1, §2

[5] = test system: Lolium multiflorum; assay: Post-emergence herbicidal effect (greenhouse pot test); conditions: post-emergence method, application rate of 0.32 kg and less of active substance per hectare, rated visually after about 3 weeks
Experimental: (§3) Seeds of monocotyledonous and dicotyledonous weed and crop plants are placed in sandy loam in wood-fiber pots, covered with soil and cultivated in a greenhouse under good growth conditions. 2 to 3 weeks after sowing, the test plants are treated at the one-leaf stage. The compounds according to the invention, formulated in the form of wettable powders (WP), are then sprayed as aqueous suspension at a water application rate of 600 I/ha (converted) with the addition of 0.2% of wetting agent onto the green parts of the plants. After the test plants have been kept in the greenhouse under optimum growth conditions for about 3 weeks, the activity of the preparations is rated visually in comparison to untreated controls (herbicidal activity in percent (%): 100% activity=the plants have died, 0% activity=like control plants).

[6] = test system: Echinochloa crus galli; assay: as above; conditions: post-emergence method, application rate of 0.32 kg and less of active substance per hectare, rated visually after about 3 weeks
Experimental: as §3

[O-][S@@+](Cc1c(Cl)cccc1Cl)c1ncco1 [compound 2517]
very good herbicidal activity: herbicidal activity against Veronica persica [1] | herbicidal activity against Alopecurus myosuroides [2] | herbicidal activity against Lolium multiflorum [3] | herbicidal activity against Echinochloa crus galli [4] | herbicidal activity against Lolium multiflorum [5] | herbicidal activity against Echinochloa crus galli [6]

Cc1ccc(C)c(C[S+]([O-])c2ncco2)c1 (stereo not drawn) [compound No. 131, 2-[(2,5-Dimethylbenzyl)sulfinyl]-1,3-oxazole]
very good herbicidal activity: herbicidal activity against Veronica persica [1] | herbicidal activity against Alopecurus myosuroides [2] | herbicidal activity against Lolium multiflorum [3] | herbicidal activity against Echinochloa crus galli [4] | herbicidal activity against Lolium multiflorum [5] | herbicidal activity against Echinochloa crus galli [6]

[O-][S+](Cc1c(Cl)ccc(Cl)c1Cl)c1ncco1 (stereo not drawn) [compound No. 65, 2-[(2,3,6-Trichlorobenzyl)sulfinyl]-1,3-oxazole]
very good herbicidal activity: herbicidal activity against Veronica persica [1] | herbicidal activity against Alopecurus myosuroides [2] | herbicidal activity against Lolium multiflorum [3] | herbicidal activity against Echinochloa crus galli [4] | herbicidal activity against Lolium multiflorum [5] | herbicidal activity against Echinochloa crus galli [6]

[O-][S+](Cc1c(Cl)cccc1Cl)c1ncco1 (racemic) [compound 44, 2-[(2,6-dichlorobenzyl)sulfinyl]-1,3-oxazole]
very good herbicidal activity: herbicidal activity against Veronica persica [1] | herbicidal activity against Alopecurus myosuroides [2] | herbicidal activity against Lolium multiflorum [3] | herbicidal activity against Echinochloa crus galli [4] | herbicidal activity against Lolium multiflorum [5] | herbicidal activity against Echinochloa crus galli [6]

O=S(=O)(Cc1c(Cl)ccc(Cl)c1Cl)c1ncco1 [compound No. 66, 2-[(2,3,6-Trichlorobenzyl)sulfonyl]-1,3-oxazole]
very good herbicidal activity: herbicidal activity against Veronica persica [1] | herbicidal activity against Alopecurus myosuroides [2] | herbicidal activity against Lolium multiflorum [3] | herbicidal activity against Echinochloa crus galli [4]

[O-][S+](Cc1c(F)cccc1F)c1ncco1 (stereo not drawn) [compound No. 11, 2-[(2,6-Difluorobenzyl)sulfinyl]-1,3-oxazole]
very good herbicidal activity: herbicidal activity against Veronica persica [1] | herbicidal activity against Alopecurus myosuroides [2] | herbicidal activity against Lolium multiflorum [3] | herbicidal activity against Echinochloa crus galli [4]

Cc1ccc(F)c(C[S+]([O-])c2ncco2)c1F (stereo not drawn) [compound No. 14, 2-[(2,6-Difluoro-3-methylbenzyl)sulfinyl]-1,3-oxazole]
very good herbicidal activity: herbicidal activity against Veronica persica [1] | herbicidal activity against Alopecurus myosuroides [2] | herbicidal activity against Lolium multiflorum [3] | herbicidal activity against Echinochloa crus galli [4]

[O-][S+](Cc1c(F)ccc(F)c1Cl)c1ncco1 (stereo not drawn) [compound No. 203, 2-[(2-Chloro-3,6-difluorobenzyl)sulfinyl]-1,3-oxazole]
very good herbicidal activity: herbicidal activity against Veronica persica [1] | herbicidal activity against Alopecurus myosuroides [2] | herbicidal activity against Lolium multiflorum [3] | herbicidal activity against Echinochloa crus galli [4] | herbicidal activity against Lolium multiflorum [5] | herbicidal activity against Echinochloa crus galli [6]

— patent publication US20110190125A1, “2-(BENZYLSULFONYL)OXAZOLE DERIVATIVES, CHIRAL 2-(BENZYLSULFINYL)OXAZOLE DERIVATIVES” (BAYER CROPSCIENCE AG, priority 2008, published 2011)
